Literature values in patent US20120277197A1, “TIGECYCLINE FORMULATIONS” (WYETH, priority 2008, published 2012).

Conditions: cited from earlier work; for activity retained after frozen storage: after 14-23 days of frozen storage

Compound | activity retained after frozen storage | other results
CC1(C)S[C@@H]2[C@H](NC(=O)[C@H](N)c3ccc(O)cc3)C(=O)N2[C@H]1C(=O)O [amoxycillin sodium] | – | stability on freezing solutions (in normal saline or in glucose): markedly reduced stability
CC1(C)S[C@@H]2[C@H](NC(=O)C(C(=O)O)c3ccccc3)C(=O)N2[C@H]1C(=O)O (some centres unmarked) [carbenicillin] | retained essentially all of their activity | –
CC(=O)OCC1=C(C(=O)O)N2C(=O)[C@@H](NC(=O)Cc3cccs3)[C@H]2SC1 [cephalothin] | retained essentially all of their activity | –
C[C@@H](O)[C@H]1C(=O)N2C(C(=O)O)=C(S[C@@H]3CN[C@H](C(=O)Nc4cccc(C(=O)O)c4)C3)[C@H](C)[C@H]12 [ertapenem] | – | stability of solutions frozen at −20° C. (frozen at −20° C.): extreme variability in stability
penicillin | retained essentially all of their activity | –
